Six molecules from patent US12365656B2, “Oxazolidinone compounds and methods of use thereof as antibacterial agents” (priority 2019, dated 2025) can be followed below.

In brackets after ≈: the same amount, converted by molar mass. Read-outs that look alike come from different tables or passages of the source. A value given as a limit tells only on which side of the number the result lay.

Broadly, the IC50 is the concentration that inhibits the measured activity by half.

Format in all cases: cell-based
Assay [1] has as its system mitochondrial protein synthesis in HepG2 cells. Put plainly: Mitochondrial protein synthesis assay. Particulars: 4 days, COX-1 relative to SDH-A / Janus Green, In Cell ELISA, read-out: MPS IC50. Background: ELISA stands for enzyme-linked immunosorbent assay.
For assay [2], the system named is Mycobacterium tuberculosis (Mtb-GFP; H37Rv pMSP12::GFP). Nature of the assay: microbe, parasite or virus in culture. Particulars: for MIC: Mycobacterium tuberculosis, H37RV, 168 h, pH 6.8, read-out: Mtb Cho MITC95.
The test system is the same in assay [3]. Nature of the assay: microbe, parasite or virus in culture. Particulars: for MIC: Mycobacterium tuberculosis, H37RV, 168 h, pH 6.8, read-out: Mtb Glu MITC95.

With `CSc1ccc(-c2ccc(N3C[C@H](CO)OC3=O)cc2F)cc1` [Example 4, (5R)-3-[2-fluoro-4′-(methylsulfanyl)[1,1′-biphenyl]-4-yl]-5-(hydroxymethyl)-1,3-oxazolidin-2-one], the 50% inhibitory concentration (IC50) in assay [1] (Homo sapiens, 96 h) is > 100 µM. In addition, the MIC in assay [2] amounted to 0.24 µM (≈ 0.08 µg/mL); in assay [3], 0.21 µM (≈ 0.07 µg/mL).
For `O=C1O[C@@H](CO)CN1c1ccc(-c2ccc(S(=O)(=O)C3CCC3)cc2)c(F)c1` [Example 29, (5R)-3-[4′-(cyclobutanesulfonyl)-2-fluoro[1,1′-biphenyl]-4-yl]-5-(hydroxymethyl)-1,3-oxazolidin-2-one], the IC50 in assay [1] (Homo sapiens, 96 h) was > 100 µM. Further, the MIC in assay [2] and in assay [3] was 3.1 µM (≈ 1.26 µg/mL) each time.
Turning to `CS(=O)(=O)c1ccc(-c2ccc(N3C[C@H](CO)OC3=O)cc2)cc1` [Example 28, (5R)-5-(hydroxymethyl)-3-[4′-(methanesulfonyl)[1,1′-biphenyl]-4-yl]-1,3-oxazolidin-2-one], the IC50 in assay [1] (Homo sapiens, 96 h) amounted to 32 µM. Besides, the MIC in assay [2] and in assay [3] was 1.6 µM (≈ 0.556 µg/mL) in each case.
With `CS(=O)(=O)c1ccc(-c2ccc(N3C[C@H](CO)OC3=O)cc2F)cc1` [Example 1, (5R)-3-[2-fluoro-4′-(methylsulfonyl)biphenyl-4-yl]-5-(hydroxymethyl)-1,3-oxazolidin-2-one], the IC50 in assay [1] (Homo sapiens, 96 h) was determined as 7 µM. In addition, the figures for the MIC in assay [2] and in assay [3] were 1.2 µM (≈ 0.438 µg/mL) and 1 µM (≈ 0.365 µg/mL), respectively.
For “4-{2,6-difluoro-4-[(5R)-5-(hydroxymethyl)-2-oxo-1,3-oxazolidin-3-yl]phenyl}-4-hydroxy-1λ^6-thiane-1,1-dione [Example 34]”, in assay [1], the IC50 is > 100 µM. For the same molecule, in assay [2] (cholesterol carbon source, pH 6.8, 7-day growth, GFP fluorescence, lowest concentration inhibiting 95% of growth), the “Mtb Cho MITC95” value came to 25 µM. Also, the “Mtb Glu MITC95” value in assay [3] (glucose carbon source, pH 6.8, 7-day growth, GFP fluorescence, lowest concentration inhibiting 95% of growth) turned out to be 25 µM.
For `Cc1nnc2cc(-c3ccc(N4C[C@H](CO)OC4=O)cc3F)ccn12` [Example 19, (5R)-3-[3-fluoro-4-(3-methyl[1,2,4]triazolo[4,3-a]pyridin-7-yl)phenyl]-5-(hydroxymethyl)-1,3-oxazolidin-2-one], in assay [1] (Homo sapiens, 96 h), the IC50 is 18 µM. Besides, the MIC in assay [2] and in assay [3] was 1.2 µM (≈ 0.411 µg/mL) each time.
